Experimental data published in patent US9034866B2 (Genentech, Inc., priority 2012, dated 2015).
Several values for one entry are separate records, joined by “and”; a condition that tells them apart may be missing. Equal entries are not always repeated.

These molecules were tested against nuclear factor-kappa B (NF-kB)-inducing kinase (NIK) (Homo sapiens (Human), UniProt Q99558) (assay: NIK Enzyme Inhibition Assay (Transcreener ADP fluorescence polarization)). Settings: purified NIK 0.2-1 nM, 10 uM ATP, Morrison's quadratic equation; read-out: NIK ADP-FP (Ki uM).
Sequence of nuclear factor-kappa B (NF-kB)-inducing kinase (NIK) (Q99558 whole entry): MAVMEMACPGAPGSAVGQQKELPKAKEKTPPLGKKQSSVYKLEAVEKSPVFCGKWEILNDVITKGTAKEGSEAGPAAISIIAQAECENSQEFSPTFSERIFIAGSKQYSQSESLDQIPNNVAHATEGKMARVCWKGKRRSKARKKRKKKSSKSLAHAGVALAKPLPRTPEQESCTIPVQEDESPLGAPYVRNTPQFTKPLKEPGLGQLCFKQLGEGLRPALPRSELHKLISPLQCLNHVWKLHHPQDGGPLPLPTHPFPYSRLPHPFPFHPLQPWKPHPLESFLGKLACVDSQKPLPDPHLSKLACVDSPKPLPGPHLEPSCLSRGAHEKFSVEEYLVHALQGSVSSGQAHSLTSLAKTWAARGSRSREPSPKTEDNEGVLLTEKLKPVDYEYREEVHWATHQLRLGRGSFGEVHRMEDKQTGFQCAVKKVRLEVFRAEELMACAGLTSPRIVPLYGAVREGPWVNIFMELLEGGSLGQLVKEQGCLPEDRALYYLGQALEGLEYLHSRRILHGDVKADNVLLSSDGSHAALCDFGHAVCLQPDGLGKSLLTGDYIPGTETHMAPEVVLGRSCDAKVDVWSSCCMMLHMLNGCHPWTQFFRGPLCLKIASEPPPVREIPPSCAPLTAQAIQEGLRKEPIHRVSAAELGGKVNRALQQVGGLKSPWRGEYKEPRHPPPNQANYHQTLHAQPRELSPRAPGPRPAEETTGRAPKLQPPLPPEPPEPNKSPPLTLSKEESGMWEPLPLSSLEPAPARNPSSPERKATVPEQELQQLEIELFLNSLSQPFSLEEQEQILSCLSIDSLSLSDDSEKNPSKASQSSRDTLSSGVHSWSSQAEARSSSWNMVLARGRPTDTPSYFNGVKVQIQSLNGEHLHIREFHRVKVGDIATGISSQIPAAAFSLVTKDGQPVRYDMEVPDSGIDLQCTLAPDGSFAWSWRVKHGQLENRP
Type: biochemical
Description: NIK Enzyme Inhibition Assay: The ability of the nuclear factor-kappa B (NF-kB)-inducing kinase (NIK) to catalyze the hydrolysis of adenosine-5′-triphosphate (ATP) was monitored using the Transcreener ADP (adenosine-5′-diphosphate) assay (BellBrook Labs). Purified NIK (0.2-1 nM) derived from a baculovirus-infected insect cell expression system was incubated with test compounds for 1-3.5 hours in 50 mM 2-[4-(2-hydroxyethyl)piperazin-1-yl]ethanesulfonic acid buffer (pH 7.2) containing 10 mM MgCl2, 2 mM dithiothreitol, 10 uM ATP, 0.01% Triton X-100, 0.1% gamma-globulins from bovine blood, 1% dimethylsulfoxide (DMSO), 12 ug/mL ADP antibody and 4 nM ADP-AlexaFluor® 633 tracer. Reactions were quenched by the addition of 20 mM 2,2′,2″,2′″-(ethane-1,2-diyldinitrilo)tetraacetic acid and 0.01% Brij 35. The tracer bound to the antibody was displaced by the ADP generated during the NIK reaction, which causes a decrease in fluorescence polarization that was measured by laser excitation at 633 nm with a Fluorescence Correlation Spectroscopy Plus reader (Evotec AG).
`CC(O)(C#Cc1cc2c(cc1F)OCCc1sc(C(N)=O)nc1-2)c1ncn[nH]1` (stereo not drawn) [Example 182, 8-fluoro-9-[3-hydroxy-3-(1H-1,2,4-tria-zol-5-yl)but-1-ynyl]-4,5-dihydro-[I]ben-zoxepino[5,4-d]thiazole-2-carboxamide] showed a Ki of 0.0021 µM. In the case of `Cc1nc([C@](C)(O)C#Cc2ccc3c(c2)-n2nc(C(N)=O)cc2CCO3)no1` [Example 673, (R)-9-(3-hydroxy-3-(5-methyl-1,2,4-oxadiazol-3-yl)but-1-yn-1-yl)-4,5-dihydro-benzo[b]pyrazolo[1,5-d][1,4]oxazepine-2-carboxamide], the Ki is reported as 0.045 µM. `CC(O)(C#Cc1cc2c(cc1F)OCCn1cc(C(N)=O)nc1-2)c1cc(CC#N)on1` (racemic) gave a Ki of 0.003 µM. `CC(C)(O)C#Cc1cc2c(cc1F)C1CC(C1)n1c-2nc(C(N)=O)c1CNC(=O)C(C)(C)C` [Example 365, 3-[(2,2-dimethylpropanoylamino)meth-yl]-9-fluoro-10-(3-hydroxy-3-methyl-but-1-ynyl)-5,6,7,12-tetrahydro-5,7-meth-anobenzo[c]imidazo[1,2-a]azepine-2-carb-oxamide] was tested, and the Ki was 0.017 µM. `C[C@@](O)(C#Cc1ccc2c(c1)-n1nc(C(N)=O)cc1C(F)(F)CO2)c1cccnn1` gave a Ki of 1.6 µM. `Cc1cc([C@](C)(O)C#Cc2ccc3c(n2)-n2cc(C(N)=O)nc2CCO3)no1` (racemic) was tested, and the Ki was 0.21 µM. `CC(C)(O)C#Cc1ccc2c(c1)-c1nc(C(N)=O)sc1C(O)CO2` (stereo not drawn) [Example 12, 4-hydroxy-9-(3-hydroxy-3-methyl-but-1-ynyl)-4,5-dihydro-6-oxa-3-thia-1-aza-benzo[e]azulene-2-carboxylic acid amide] was tested, and the Ki was 0.093 µM. Molecule `CC(O)C(C)(O)C#Cc1cc2c(cc1F)OCCn1cc(C(N)=O)nc1-2` (stereo not drawn) [Example 142] has a Ki of 0.142 µM. Work on `Cc1nnc(C(C)(C#Cc2ccc3c(c2)-c2nc(C(N)=O)cn2CCO3)CO)[nH]1` (stereo not drawn) [Example 28, 9-[4-hydroxy-3-methyl-3-(5-methyl-4H-[1,24]triazol-3-yl)-but-1-ynyl]-4,5-di-hydro-6-oxa-1,3a-diaza-benzo[e]azulene-2-carboxylic acid amide] yielded a Ki greater than 5 µM. Molecule `CNC(=O)C(C)(O)C#Cc1cc2c(cc1F)OCCn1cc(C(N)=O)nc1-2` (stereo not drawn) has a Ki of 1.4 µM. For `Cc1cc([C@](C)(O)C#Cc2ccc3c(c2)-c2nc(C(N)=O)c(C(=O)NCC4COC4)n2CCO3)no1` [Example 580, (R)-10-(3-hydroxy-3-(5-methylisoxazol-3-yl)but-1-yn-1-yl)-N3-(oxetan-3-ylmeth-yl)-5,6-dihydrobenzo[f]imidazo[1,2-d][1,4]oxazepine-2,3-dicarboxamide], the Ki was 0.0026 µM. For `CC(O)(C#Cc1ccc2c(c1)-c1nc(C(N)=O)cn1C1CC2C1)c1ccccn1` (stereo not drawn), the Ki was 0.0071 µM. With `NC(=O)c1cn2c(n1)-c1cc(C#CC3(O)CCC3)c(F)cc1OCC2` [Example 17, 8-fluoro-9-(1-hydroxy-cyclobutylethynyl)-4,5-dihydro-6-oxa-1,3a-diaza-benzo[e]azulene-2-carboxylic acid amide] the Ki was 0.01 µM. `NC(=O)c1cn2c(n1)-c1cc(C#CC3(O)CC(CO)C3)c(F)cc1OCC2` (stereo not drawn) [Example 76] was tested, and the Ki was 2.3 µM. With `Cn1nccc1C(O)c1c(C(N)=O)nc2n1C1CC(C1)c1cc(F)c(C#CC(C)(C)O)cc1-2` (racemic) the Ki was 0.0072 µM. In the case of `NC(=O)c1nc2c(s1)CCOc1ccc(C#CC3(O)CCCC3)cc1-2` [Example 4, 9-(1-hydroxy-cyclopentylethynyl)-4,5-di-hydro-6-oxa-3-thia-1-aza-benzo[e]azu-lene-2-carboxylic acid amide], the Ki is reported as 0.004 µM. Molecule `CN1CCCC(O)(C#Cc2ccc3c(c2)-c2nc(C(N)=O)cn2CCO3)C1=O` (stereo not drawn) [Example 158] has a Ki of 0.0059 µM. In the case of `CC(O)(C#Cc1cc2c(cc1F)OCCn1cc(C(N)=O)nc1-2)c1cncnc1` (stereo not drawn) [Example 14, 8-Fluoro-9-(3-hydroxy-3-pyrimidin-5-yl-but-1-ynyl)-4,5-dihydro-6-oxa-1,3a-diaza-benzo[e]azulene-2-carboxylic acid amide], the Ki is reported as 0.864 µM. Molecule `CN(C)C1COc2ccc(C#CC(C)(C)O)cc2-c2nc(C(N)=O)sc21` (stereo not drawn) [Example 10, 4-dimethylamino-9-(3-hydroxy-3-meth-yl-but-1-ynyl)-4,5-dihydro-6-oxa-3-thia-1-aza-benzo[e]azulene-2-carboxylic acid amide] has a Ki of 0.096 µM. Molecule `CC(C)(O)C#Cc1ccc2c(c1)-c1nc(C(N)=O)sc1C(CC(N)=O)CO2` (racemic) [Example 49] has a Ki of 0.023 µM. `CNC(=O)c1c(C(N)=O)nc2n1CCOc1ccc(C#CC(C)(O)CO)cc1-2` (racemic) was tested, and the Ki was 0.003 µM. `CC(O)C(C)(O)C#Cc1cc2c(cc1F)OCCn1cc(C(N)=O)nc1-2` (stereo not drawn) gave a Ki of 4.9 µM. Work on `Cc1cc([C@](C)(O)C#Cc2cc3c(cc2C)OCCn2cc(C(N)=O)nc2-3)no1` [Example 38, 9-[(R)-3-hydroxy-3-(5-methyl-isoxazol-3-yl)-but-1-ynyl]-8-methyl-4,5-dihydro-6-oxa-1,3a-diaza-benzo[e]azulene-2-car-boxylic acid amide] yielded a Ki of 0.062 µM. `CC(C)(O)C#Cc1ccc2c(c1)-c1nc(C(N)=O)c(CNC3COC3)n1CCO2` was tested, and the Ki was 0.00054 µM. In the case of `CC(C)(O)C#Cc1ccc2c(c1)-c1nc(C(N)=O)c(CN3CCC(=O)C3)n1CCO2` [Example 711], the Ki is reported as 1.8 µM and 1.1 µM. In the case of `CC(O)(C#Cc1cc2c(cc1F)OCCn1cc(C(N)=O)nc1-2)c1ncc[nH]1` (racemic), the Ki is reported as 0.083 µM. `CN1CC[C@@](O)(C#Cc2ccc3c(c2)-n2nc(C(N)=O)c(C(F)F)c2CCO3)C1=O` [Example 718, (R)-3-(difluoromethyl)-9-((3-hydroxy-1-methyl-2-oxopyrrolidin-3-yl)ethynyl)-4,5-dihydrobenzo[b]pyrazolo[1,5-d][1,4]oxazepine-2-carboxamide] was tested, and the Ki was 0.0003 µM. `CN1CCC(CNC(=O)c2c(C(N)=O)nc3n2CCOc2cc(F)c(C#CC(C)(C)O)cc2-3)C1` (racemic) [Example 68] was tested, and the Ki was 0.879 µM. Molecule `CN1CCN(Cc2c(C(N)=O)nc3n2CCOc2ccc(C#CC(C)(C)O)cc2-3)CC1` has a Ki of 0.95 µM. Work on `Cc1nc(-c2c(C(N)=O)nc3n2CCOc2cc(F)c(C#CC(C)(C)O)cc2-3)n(CC(F)(F)F)n1` yielded a Ki of 0.502 µM. `Cc1cc([C@](C)(O)C#Cc2ccc3c(c2)-c2nc(C(N)=O)c(C(=O)NCc4cccnc4)n2CCO3)no1` [Example 581, (R)-10-(3-hydroxy-3-(5-methylisoxazol-3-yl)but-1-yn-1-yl)-N3-(pyridin-3-ylmeth-yl)-5,6-dihydrobenzo[f]imidazo[1,2-d][1,4]oxazepine-2,3-dicarboxamide] gave a Ki of 0.001 µM. `CC(C)(O)C#Cc1ccc2c(c1)-c1nc(C(N)=O)sc1CCO2` [Example 3, 9-(3-hydroxy-3-methyl-but-1-ynyl)-4,5-dihydro-6-oxa-3-thia-1-aza-benzo[e]azu-lene-2-carboxylic acid amide] was tested, and the Ki was 0.033 µM. In the case of `Cn1cncc1C(O)c1c(C(N)=O)nc2n1C1CC(C1)c1cc(F)c(C#CC(C)(C)O)cc1-2` (stereo not drawn), the Ki is reported as 0.031 µM. In the case of `CC(O)(C#Cc1cc2c(cc1F)OCCn1cc(C(N)=O)nc1-2)C(=O)NC1CC1` (stereo not drawn) [Example 94], the Ki is reported as 0.854 µM. `CC(O)(C#Cc1cc2c(cc1F)OCCn1cc(C(N)=O)nc1-2)c1ccc(F)cn1` (stereo not drawn) [Example 101, 8-fluoro-9-[3-(5-fluoro-pyridin-2-yl)-3-hydroxy-but-1-ynyl]-4,5-dihydro-6-oxa-1,3a-diaza-benzo[e]azulene-2-carboxy-lic acid amide] gave a Ki of 3.5 µM. For `CC(C)(O)C#Cc1ccc2c(c1)-c1nc(C(N)=O)c(Cn3ncc4ccccc43)n1CCO2`, the Ki was 0.14 µM. With `NC(=O)c1cn2c(n1)-c1cc(C#CC3(O)CCNC3)ccc1OCC2` (stereo not drawn) [Example 29, 9-(3-hydroxy-pyrrolidin-3-ylethynyl)-4,5-dihydro-6-oxa-1,3a-diaza-benzo[e]azu-lene-2-carboxylic acid amide] the Ki was greater than 5 µM. `CC(C)(O)C#Cc1cc2c(cc1F)C1CC(C1)c1[nH]c(C(N)=O)nc1-2` (racemic) gave a Ki of 0.00068 µM. In the case of `CN(C)Cc1c(C(N)=O)nc2n1C1CC(C1)c1cc(F)c(C#CC(C)(C)O)cc1-2` (racemic), the Ki is reported as 0.6 µM. With `CNC(=O)c1c(C(N)=O)nc2n1CCOc1ccc(C#CC3(O)CCCCC3)cc1-2` the Ki was 0.0057 µM. `CC(C)(O)C#Cc1cc2c(cc1F)OCCn1cc(C(N)=O)nc1-2` [Example 5, 8-fluoro-9-(3-hydroxy-3-methyl-but-1-ynyl)-4,5-dihydro-6-oxa-1,3a-diaza-ben-zo[e]azulene-2-carboxylic acid amide] was tested, and the Ki was 0.034 µM. Molecule `CC(O)(C#Cc1cc2c(cc1F)OCCn1cc(C(N)=O)nc1-2)C1(C)CC1` (racemic) [Example 64] has a Ki greater than 5 µM. `CN1CC[C@@](O)(C#Cc2ccc3c(c2)-c2nc(C(N)=O)c(C(=O)NC4CC4)n2C2CC3C2)C1=O` showed a Ki of 0.016 µM. Work on `Cn1cc([C@@H](O)c2c(C(N)=O)nc3n2CCOc2cc(F)c(C#CC(C)(C)O)cc2-3)cn1` yielded a Ki of 0.033 µM. For `CC(C)(O)C#Cc1cc2c(cc1F)OCCn1c-2nc(C(N)=O)c1C1CC1` [Example 36, 3-cyclopropyl-8-fluoro-9-(3-hydroxy-3-methyl-but-1-ynyl)-4,5-dihydro-6-oxa-1,3a-diaza-benzo[e]azulene-2-carboxylic acid amide], the Ki was 0.037 µM. With `CC(C)(O)C#Cc1cc2c(cc1F)C1CC(C1)n1c-2nc(C(N)=O)c1CN1CCOCC1` the Ki was 0.021 µM.

Same assay, conditions: read-out: NIK ADP-FP (Ki uM)
For `CNC(=O)c1c(C(N)=O)nc2n1C1CC(C1)c1cc(F)c(C#C[C@@](C)(O)c3noc(C)n3)cc1-2`, the Ki was 0.051 µM. For `CN1CC[C@@](O)(C#Cc2ccc3c(c2)-c2nc(C(N)=O)c(COc4ccccc4Cl)n2CCO3)C1=O`, the Ki was 0.004 µM.
